Tests used:
[1] = 37% formaldehyde; cited from earlier work
[2] = molecular target: T1, influenza hemagglutinin protein (Influenza A virus, UniProt P03452); test: LCMS/MS of hemagglutinin protein reacted with EGCG; details: EGCG modified in the form of dihydro epigallocatechin (C15H11O6)
T1 construct: host or cells: human cells
Experimental: In addition, the hemagglutinin protein reacted with EGCG was analyzed through liquid chromatography mass spectrometry (LCMS/MS). The protein bands stained with Coomassie blue were separated by in-gel digestion, subjected to alkylation and de-staining processes, and then prepared into peptide fragments using trypsin. The prepared peptide fragments were analyzed using LCMS/MS [(Q-Exactive mass spectrometer (Thermo Fisher Scientific, Bremen, Germany) coupled with an Easy-nLC system (Thermo Fisher Scientific, Odense, Denmark)].

T1 sequence (P03452 18-565): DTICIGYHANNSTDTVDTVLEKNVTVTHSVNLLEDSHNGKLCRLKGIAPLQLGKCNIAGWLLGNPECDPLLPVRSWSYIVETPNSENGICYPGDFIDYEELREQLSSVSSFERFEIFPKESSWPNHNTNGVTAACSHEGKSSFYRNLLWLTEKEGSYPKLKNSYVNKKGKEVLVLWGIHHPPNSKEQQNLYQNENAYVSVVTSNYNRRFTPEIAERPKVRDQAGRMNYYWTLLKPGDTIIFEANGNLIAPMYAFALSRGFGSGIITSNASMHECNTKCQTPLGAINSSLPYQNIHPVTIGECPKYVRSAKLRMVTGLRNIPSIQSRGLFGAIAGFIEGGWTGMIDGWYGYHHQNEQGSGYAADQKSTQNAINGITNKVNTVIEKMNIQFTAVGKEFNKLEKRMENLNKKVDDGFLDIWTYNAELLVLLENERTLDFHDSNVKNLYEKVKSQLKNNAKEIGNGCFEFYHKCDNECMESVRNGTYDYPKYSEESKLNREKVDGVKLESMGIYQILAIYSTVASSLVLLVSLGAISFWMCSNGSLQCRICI

Row | Molecule | amount that can lead to death in adults [1] [mL] | binding site of EGCG on hemagglutinin (LCMS/MS) [2]
1 | C=O [formaldehyde] | 30 | 
2 | (−)-epigallocatechin gallate [EGCG] |  | bound to the cysteine residue, which is the 152nd amino acid of the influenza hemagglutinin protein

Reference: patent publication US20180177860A1, “VACCINE […] I[…] GREEN TEA EXTRACT, AND PREPARATION METHOD THEREFOR” (priority 2015, published 2018)
